# Results as given in ChEMBL document CHEMBL3351522, “Discovery of structurally simplified analogs of colchicine as an immunosuppressant” (Bioorg Med Chem Lett, 2014).
# Active and inactive are the calls of the source. The calls are words filed in the database; no cut-off is given here.
# Key:
# Mus musculus [1] = assay: Toxicity in female ICR-SPF mouse assessed as induction of body weight changes at 100 mg/kg, iv administered as single dose measured 14 days post dose; format: organism-based; parameters: dose 100 mg/kg, route intravenous; details: in vivo, 336 h
# Mus musculus [2] = assay: Toxicity in male ICR-SPF mouse assessed as mortality incidences at 30 mg/kg, iv administered as single dose measured 14 days post dose; format: organism-based; parameters: dose 30 mg/kg, route intravenous; details: in vivo, 336 h
# Mus musculus [3] = assay: Toxicity in C57BL/6 mouse assessed as induction of body weight loss at 1 mg/kg, iv dosed once daily for 4 days; format: organism-based; parameters: dose 1 mg/kg, route intravenous; details: in vivo, 96 h
# Mus musculus [4] = assay: Toxicity in C57BL/6 mouse assessed as induction of spleen weight loss at 0.1 to 3 mg/kg, iv dosed once daily for 4 days; format: organism-based; parameters: dose 0.1-3 mg/kg, route intravenous; details: in vivo, 96 h
# Mus musculus [5] = assay: Toxicity in female ICR-SPF mouse assessed as autopsy changes at 30 mg/kg, iv administered as single dose measured 14 days post dose; format: organism-based; parameters: dose 30 mg/kg, route intravenous; details: in vivo, 336 h
# Mus musculus [6] = assay: Toxicity in female ICR-SPF mouse assessed as mortality incidences at 30 mg/kg, iv administered as single dose measured 14 days post dose; format: organism-based; parameters: dose 30 mg/kg, route intravenous; details: in vivo, 336 h
# Mus musculus [7] = assay: Toxicity in male ICR-SPF mouse assessed as induction of body weight changes at 10 mg/kg, iv administered as single dose measured 14 days post dose; format: organism-based; parameters: dose 10 mg/kg, route intravenous; details: in vivo, 336 h
# Mus musculus [8] = assay: Toxicity in female ICR-SPF mouse assessed as mortality incidences at 10 mg/kg, iv administered as single dose measured 14 days post dose; format: organism-based; parameters: dose 10 mg/kg, route intravenous; details: in vivo, 336 h
# Mus musculus [9] = assay: Toxicity in male ICR-SPF mouse assessed as autopsy changes at 10 mg/kg, iv administered as single dose measured 14 days post dose; format: organism-based; parameters: dose 10 mg/kg, route intravenous; details: in vivo, 336 h
# Mus musculus [10] = assay: Toxicity in male ICR-SPF mouse assessed as induction of body weight changes at 100 mg/kg, iv administered as single dose measured 14 days post dose; format: organism-based; parameters: dose 100 mg/kg, route intravenous; details: in vivo, 336 h
# Mus musculus [11] = assay: Immunosuppressive activity in carrageenan-induced paw edema C57BL/6 mouse model assessed as reduction in pLN weight increase dosed after carrageenan challenge; format: functional, organism-based
# Mus musculus [12] = assay: Toxicity in male ICR-SPF mouse assessed as mortality incidences at 100 mg/kg, iv administered as single dose measured 14 days post dose; format: organism-based; parameters: dose 100 mg/kg, route intravenous; details: in vivo, 336 h
# Macrophage = assay: Inhibition of nitric oxide production in bone marrow-derived macrophages (unknown origin) at 1 to 100 ng/mL; format: functional, cell-based
# Mus musculus [13] = assay: Toxicity in female ICR-SPF mouse assessed as autopsy changes at 10 mg/kg, iv administered as single dose measured 14 days post dose; format: organism-based; parameters: dose 10 mg/kg, route intravenous; details: in vivo, 336 h
# [14] = Toxicity in LPS-induced bone marrow-derived dendritic cells (unknown origin) assessed as effect on cell viability at 1 to 100 ng/mL; format: cell-based
# Mus musculus [15] = assay: Toxicity in male ICR-SPF mouse assessed as induction of body weight changes at 30 mg/kg, iv administered as single dose measured 14 days post dose; format: organism-based; parameters: dose 30 mg/kg, route intravenous; details: in vivo, 336 h
# Mus musculus [16] = assay: Toxicity in female ICR-SPF mouse assessed as autopsy changes at 100 mg/kg, iv administered as single dose measured 14 days post dose; format: organism-based; parameters: dose 100 mg/kg, route intravenous; details: in vivo, 336 h
# RAW264.7 = assay: Inhibition of nitric oxide production in mouse RAW264.7 cells at 1 to 100 ng/mL; format: functional, cell-based
# Mus musculus [17] = assay: Toxicity in female ICR-SPF mouse assessed as induction of body weight changes at 10 mg/kg, iv administered as single dose measured 14 days post dose; format: organism-based; parameters: dose 10 mg/kg, route intravenous; details: in vivo, 336 h
# Mus musculus [18] = assay: Toxicity in C57BL/6 mouse assessed as induction of body weight loss at 0.1 to 3 mg/kg, iv dosed once daily for 4 days; format: organism-based; parameters: dose 0.1-3 mg/kg, route intravenous; details: in vivo, 96 h
# Mus musculus [19] = assay: Toxicity in iv dosed female ICR-SPF mouse administered as single dose measured 14 days post dose; format: organism-based; details: in vivo, 336 h
# Mus musculus [20] = assay: Toxicity in female ICR-SPF mouse assessed as induction of body weight changes at 30 mg/kg, iv administered as single dose measured 14 days post dose; format: organism-based; parameters: dose 30 mg/kg, route intravenous; details: in vivo, 336 h
# Mus musculus [21] = assay: Toxicity in male ICR-SPF mouse assessed as autopsy changes at 100 mg/kg, iv administered as single dose measured 14 days post dose; format: organism-based; parameters: dose 100 mg/kg, route intravenous; details: in vivo, 336 h
# Mus musculus [22] = assay: Toxicity in male ICR-SPF mouse assessed as mortality incidences at 10 mg/kg, iv administered as single dose measured 14 days post dose; format: organism-based; parameters: dose 10 mg/kg, route intravenous; details: in vivo, 336 h
# B-cell [23] = assay: Immunosuppressive activity in B cells (unknown origin) assessed as inhibition of LPS-induced cell proliferation at 1 to 100 ng/mL; format: functional, cell-based
# Mus musculus [24] = assay: Intestinal toxicity in C57BL/6 mouse assessed as induction of intestinal dilation at 1 mg/kg, iv dosed once daily for 4 days; format: organism-based; parameters: dose 1 mg/kg, route intravenous; details: in vivo, 96 h
# Mus musculus [25] = assay: Toxicity in iv dosed male ICR-SPF mouse administered as single dose measured 14 days post dose; format: organism-based; details: in vivo, 336 h
# Mus musculus [26] = assay: Toxicity in male ICR-SPF mouse assessed as autopsy changes at 30 mg/kg, iv administered as single dose measured 14 days post dose; format: organism-based; parameters: dose 30 mg/kg, route intravenous; details: in vivo, 336 h
# Dendritic cell = assay: Inhibition of LPS-induced IL-12 production in bone marrow-derived dendritic cells (unknown origin) at 1 to 100 ng/mL; format: functional, cell-based
# Mus musculus [27] = assay: Toxicity in female ICR-SPF mouse assessed as mortality incidences at 100 mg/kg, iv administered as single dose measured 14 days post dose; format: organism-based; parameters: dose 100 mg/kg, route intravenous; details: in vivo, 336 h
# Mus musculus [28] = species on record: Mus musculus; assay: Immunosuppressive activity in SRBC immunized mouse assessed as suppression of B-cell mediated immune response; format: functional, organism-based
# T-cell [29] = assay: Immunosuppressive activity in T cells (unknown origin) assessed as inhibition of Con A-induced cell proliferation at 1 to 100 ng/mL; format: functional, cell-based
# Mus musculus [30] = assay: Immunosuppressive activity in zymosan A-induced arthritis C57BL/6 mouse model assessed as reduction in pLN weight increase dosed after zymosan A challenge; format: functional, organism-based
# T-cell [31] = assay: Immunosuppressive activity in T cells (unknown origin) assessed as inhibition of Con A-induced cell proliferation at 3 to 30 ng/mL; format: functional, cell-based
# B-cell [32] = assay: Immunosuppressive activity in B cells (unknown origin) assessed as inhibition of LPS-induced cell proliferation at 3 to 30 ng/mL; format: functional, cell-based
compound,measurement,setting,value
COc1cc2c(c(OC)c1OC)-c1ccc(SC)c(=O)cc1CCC2,Activity,Mus musculus [1],Non-toxic
same,Activity,Mus musculus [2],Non-toxic
same,Activity,Mus musculus [3],Non-toxic
same,Activity,Mus musculus [4],Non-toxic
same,Activity,Mus musculus [5],Non-toxic
same,Activity,Mus musculus [6],Non-toxic
same,Activity,Mus musculus [7],Non-toxic
same,Activity,Mus musculus [8],Non-toxic
same,Activity,Mus musculus [9],Non-toxic
same,Activity,Mus musculus [10],Non-toxic
same,inhibition,Mus musculus [11],Dose-dependent effect
same,Activity,Mus musculus [12],Non-toxic
same,inhibition,Macrophage,inactive
same,Activity,Mus musculus [13],Non-toxic
same,Activity,[14],Non-toxic
same,Activity,Mus musculus [15],Non-toxic
same,Activity,Mus musculus [16],Non-toxic
same,inhibition,RAW264.7,Active
same,Activity,Mus musculus [17],Non-toxic
same,Activity,Mus musculus [18],Non-toxic
same,MLD,Mus musculus [19],> 100 mg/kg
same,Activity,Mus musculus [20],Non-toxic
same,Activity,Mus musculus [21],Non-toxic
same,Activity,Mus musculus [22],Non-toxic
same,inhibition,B-cell [23],Dose-dependent effect
same,Activity,Mus musculus [24],Non-toxic
same,MLD,Mus musculus [25],> 100 mg/kg
same,Activity,Mus musculus [26],Non-toxic
same,inhibition,Dendritic cell,Dose-dependent effect
same,Activity,Mus musculus [27],Non-toxic
same,Activity,Mus musculus [28],Dose-dependent effect
same,inhibition,T-cell [29],Dose-dependent effect
same,inhibition,Mus musculus [30],Dose-dependent effect
COc1cc(/C=C/c2ccc(OC)c(=O)cc2)cc(OC)c1OC,inhibition,T-cell [31],inactive
same,inhibition,B-cell [32],inactive
COc1cc(C/C=C/c2ccc(OC)c(=O)cc2)cc(OC)c1OC,inhibition,T-cell [31],inactive
same,inhibition,B-cell [32],inactive
COc1ccc(C/C=C/c2ccc(OC)c(=O)cc2)c(OC)c1OC,inhibition,T-cell [31],inactive
same,inhibition,B-cell [32],inactive
COc1ccc(-c2ccc(SC)c(=O)cc2)c(OC)c1OC,inhibition,T-cell [31],Active
same,inhibition,B-cell [32],Active
COc1ccc(/C=C/c2ccc(OC)c(=O)cc2)c(OC)c1OC,inhibition,T-cell [31],inactive
same,inhibition,B-cell [32],inactive
COc1cc2c(c(OC)c1OC)-c1ccc(SC)c(=O)cc1[C@@H](NC(=O)C1CC1C)CC2 (stereo partly specified),Activity,Mus musculus [4],Toxic
same,Activity,Mus musculus [18],Toxic
same,Activity,Mus musculus [24],Toxic
COc1cc2c(c(OC)c1OC)-c1ccc(SC)c(=O)cc1C=CC2,Activity,Mus musculus [1],Non-toxic
same,Activity,Mus musculus [2],Non-toxic
same,Activity,Mus musculus [3],Non-toxic
same,Activity,Mus musculus [4],Non-toxic
same,Activity,Mus musculus [5],Non-toxic
same,Activity,Mus musculus [6],Non-toxic
same,Activity,Mus musculus [7],Non-toxic
same,Activity,Mus musculus [8],Non-toxic
same,Activity,Mus musculus [9],Non-toxic
same,Activity,Mus musculus [10],Non-toxic
same,inhibition,Mus musculus [11],Dose-dependent effect
same,Activity,Mus musculus [12],Non-toxic
same,inhibition,Macrophage,inactive
same,Activity,Mus musculus [13],Non-toxic
same,Activity,[14],Non-toxic
same,Activity,Mus musculus [15],Non-toxic
same,Activity,Mus musculus [16],Non-toxic
same,inhibition,RAW264.7,Active
same,Activity,Mus musculus [17],Non-toxic
same,Activity,Mus musculus [18],Non-toxic
same,MLD,Mus musculus [19],> 100 mg/kg
same,Activity,Mus musculus [20],Non-toxic
same,Activity,Mus musculus [21],Non-toxic
same,Activity,Mus musculus [22],Non-toxic
same,inhibition,B-cell [23],Dose-dependent effect
same,Activity,Mus musculus [24],Non-toxic
same,MLD,Mus musculus [25],> 100 mg/kg
same,Activity,Mus musculus [26],Non-toxic
same,inhibition,Dendritic cell,Dose-dependent effect
same,Activity,Mus musculus [27],Non-toxic
same,Activity,Mus musculus [28],Dose-dependent effect
same,inhibition,T-cell [29],Dose-dependent effect
same,inhibition,Mus musculus [30],Dose-dependent effect
COc1ccc(-c2ccc(OC)c(=O)cc2)c(OC)c1OC,inhibition,T-cell [31],Active
same,inhibition,B-cell [32],Active
